Measurements published in PMC8213057, “Targeting ALK2: An Open Science Approach to Developing Therapeutics for the Treatment of Diffuse Intrinsic Pontine Glioma” (Journal of Medicinal Chemistry, 2020).

What was measured:
MEK3 = biological target: T1, MEK3 (Homo sapiens, UniProt P46734); assay: biochemical; settings: read-out: % enzyme activity, 1 μM; Run 1, Run 2
T1 sequence (P46734 1-347): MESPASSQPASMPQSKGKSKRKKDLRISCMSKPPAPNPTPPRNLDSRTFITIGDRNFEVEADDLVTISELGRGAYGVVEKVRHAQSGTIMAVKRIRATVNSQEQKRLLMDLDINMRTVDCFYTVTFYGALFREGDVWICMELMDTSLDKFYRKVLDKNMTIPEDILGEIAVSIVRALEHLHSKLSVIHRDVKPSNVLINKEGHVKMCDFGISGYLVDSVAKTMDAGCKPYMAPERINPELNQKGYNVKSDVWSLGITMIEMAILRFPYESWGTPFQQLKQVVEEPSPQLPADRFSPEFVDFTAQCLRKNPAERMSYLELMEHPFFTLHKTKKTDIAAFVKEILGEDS

MYLK3 = biological target: T2, MYLK3 (Homo sapiens, UniProt Q32MK0); settings: 1 μM; Run 1, Run 2
T2 sequence (Q32MK0 1-819): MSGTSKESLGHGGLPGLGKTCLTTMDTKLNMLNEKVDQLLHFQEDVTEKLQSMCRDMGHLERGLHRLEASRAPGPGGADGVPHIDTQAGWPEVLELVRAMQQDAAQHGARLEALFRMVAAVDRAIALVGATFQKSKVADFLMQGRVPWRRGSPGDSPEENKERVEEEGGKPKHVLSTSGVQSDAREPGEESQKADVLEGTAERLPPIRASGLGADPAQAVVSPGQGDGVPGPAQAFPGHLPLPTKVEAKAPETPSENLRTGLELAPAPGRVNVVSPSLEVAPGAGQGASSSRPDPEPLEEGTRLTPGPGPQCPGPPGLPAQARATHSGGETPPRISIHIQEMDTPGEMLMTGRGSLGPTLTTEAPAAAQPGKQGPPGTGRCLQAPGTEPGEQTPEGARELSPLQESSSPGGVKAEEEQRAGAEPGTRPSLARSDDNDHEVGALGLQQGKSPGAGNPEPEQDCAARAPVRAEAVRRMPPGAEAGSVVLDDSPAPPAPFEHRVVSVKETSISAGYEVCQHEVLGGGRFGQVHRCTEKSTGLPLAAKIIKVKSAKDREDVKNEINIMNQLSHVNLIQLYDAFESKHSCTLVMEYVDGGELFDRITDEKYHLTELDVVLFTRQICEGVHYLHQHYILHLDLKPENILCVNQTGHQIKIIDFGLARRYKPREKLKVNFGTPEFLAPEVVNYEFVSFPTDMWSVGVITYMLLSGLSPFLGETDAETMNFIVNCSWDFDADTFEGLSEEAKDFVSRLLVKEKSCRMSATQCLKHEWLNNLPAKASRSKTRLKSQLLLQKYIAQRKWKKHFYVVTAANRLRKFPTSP

CK1g1 = CK1g1 (Homo sapiens, UniProt Q9HCP0); assay: biochemical; settings: read-out: % enzyme activity, 1 μM; Run 1, Run 2
NEK1 = biological target: T3, NEK1 (Homo sapiens, UniProt Q96PY6); assay: biochemical; settings: read-out: % enzyme activity, 1 μM; Run 1, Run 2
T3 sequence (Q96PY6 1-1258): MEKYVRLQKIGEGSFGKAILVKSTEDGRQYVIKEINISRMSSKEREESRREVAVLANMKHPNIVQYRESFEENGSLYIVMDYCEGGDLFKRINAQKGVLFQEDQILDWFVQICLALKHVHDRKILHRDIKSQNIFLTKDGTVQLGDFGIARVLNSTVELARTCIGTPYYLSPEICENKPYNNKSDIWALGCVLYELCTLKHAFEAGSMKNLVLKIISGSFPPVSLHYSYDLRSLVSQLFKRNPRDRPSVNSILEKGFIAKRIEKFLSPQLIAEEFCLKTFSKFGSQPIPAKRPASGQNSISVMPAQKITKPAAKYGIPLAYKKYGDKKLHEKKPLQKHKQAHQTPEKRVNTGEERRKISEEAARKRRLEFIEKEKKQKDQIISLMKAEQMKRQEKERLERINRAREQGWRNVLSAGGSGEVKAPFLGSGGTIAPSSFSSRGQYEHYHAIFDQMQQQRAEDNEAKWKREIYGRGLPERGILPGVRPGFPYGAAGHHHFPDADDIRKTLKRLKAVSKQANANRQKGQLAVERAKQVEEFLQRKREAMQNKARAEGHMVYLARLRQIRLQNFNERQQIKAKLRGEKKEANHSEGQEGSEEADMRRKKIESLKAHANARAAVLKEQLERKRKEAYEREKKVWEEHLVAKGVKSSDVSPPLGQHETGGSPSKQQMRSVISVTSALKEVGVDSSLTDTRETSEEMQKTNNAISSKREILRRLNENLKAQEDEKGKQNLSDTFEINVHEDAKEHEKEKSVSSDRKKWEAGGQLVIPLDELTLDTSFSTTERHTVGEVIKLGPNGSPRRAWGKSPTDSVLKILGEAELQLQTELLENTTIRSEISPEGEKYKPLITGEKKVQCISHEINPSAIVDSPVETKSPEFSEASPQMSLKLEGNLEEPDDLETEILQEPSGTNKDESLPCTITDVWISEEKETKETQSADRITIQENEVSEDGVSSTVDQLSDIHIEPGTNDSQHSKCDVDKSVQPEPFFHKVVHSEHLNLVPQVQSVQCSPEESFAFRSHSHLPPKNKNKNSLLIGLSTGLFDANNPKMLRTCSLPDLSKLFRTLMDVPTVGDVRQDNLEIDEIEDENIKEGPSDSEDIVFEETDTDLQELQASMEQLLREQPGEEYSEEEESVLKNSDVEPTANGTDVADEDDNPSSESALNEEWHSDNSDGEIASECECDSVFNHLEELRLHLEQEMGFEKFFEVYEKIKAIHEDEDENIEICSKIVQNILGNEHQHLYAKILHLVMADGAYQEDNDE

NEK6 = NEK6 (Homo sapiens, UniProt Q9HC98); settings: 1 μM; Run 1, Run 2
NEK6, sequence (Q9HC98 whole entry): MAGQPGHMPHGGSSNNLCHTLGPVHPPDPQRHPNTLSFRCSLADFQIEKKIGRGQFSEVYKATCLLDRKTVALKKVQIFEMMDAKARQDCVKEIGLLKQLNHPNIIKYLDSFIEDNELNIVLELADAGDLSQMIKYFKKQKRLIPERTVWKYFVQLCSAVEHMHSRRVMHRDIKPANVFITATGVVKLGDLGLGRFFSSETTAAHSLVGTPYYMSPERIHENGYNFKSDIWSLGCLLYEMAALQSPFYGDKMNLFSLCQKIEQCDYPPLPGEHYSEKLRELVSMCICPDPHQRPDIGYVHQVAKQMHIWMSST

CK1g1, sequence (Q9HCP0 whole entry): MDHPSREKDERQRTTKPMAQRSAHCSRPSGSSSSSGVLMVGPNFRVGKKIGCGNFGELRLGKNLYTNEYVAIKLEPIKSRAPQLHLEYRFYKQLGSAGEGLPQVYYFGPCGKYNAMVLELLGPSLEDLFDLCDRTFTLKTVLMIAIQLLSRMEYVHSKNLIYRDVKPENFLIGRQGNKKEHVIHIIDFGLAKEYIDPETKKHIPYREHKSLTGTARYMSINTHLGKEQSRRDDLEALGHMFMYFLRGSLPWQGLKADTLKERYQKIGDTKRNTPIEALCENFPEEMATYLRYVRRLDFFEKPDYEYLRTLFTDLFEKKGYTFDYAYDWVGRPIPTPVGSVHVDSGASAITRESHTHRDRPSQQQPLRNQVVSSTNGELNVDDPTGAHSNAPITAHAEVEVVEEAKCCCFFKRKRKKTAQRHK

| Structure (SMILES) | remaining activity at 1 µM (MEK3) | % enzyme activity (MYLK3) | remaining activity at 1 µM (CK1g1) | remaining activity at 1 µM (NEK1) | % enzyme activity (NEK6) | IC50 (hERG) | hERG inhibition (hERG) |
| --- | --- | --- | --- | --- | --- | --- | --- |
| COc1cc(-c2cncc(-c3ccc(N4CCN(C)CC4)cc3)c2C)cc(F)c1C(N)=O [Compound 26a, 2-Fluoro-6-methoxy-4-(4-methyl-5-(4-(4-methylpiperazin-1-yl)phenyl)pyridin-3-yl)benzamide] | 102% | 98.90% | 57.7% | 87.6% | 98.81% | >30 µM | > 30 µM |
| COc1cc(-c2cncc(-c3ccc(N4C[C@@H](C)N(C)[C@@H](C)C4)cc3)c2C)cc(F)c1C(N)=O [Compound 26c, 2-Fluoro-6-methoxy-4-(4-methyl-5-(4-((3R,5S)-3,4,5-trimethylpiperazin-1-yl)phenyl)pyridin-3-yl)benzamide] | 101% | 99.34% | 71.7% | 88.1% | 103.36% | – | 18.8 µM |
